A short description of one series: Miscibility with water. It is filed as physicochemical.
Series [1] can be described thus: Water activity aw of capsule fill (Pawkit water activity meter). It counts as physicochemical. The note with it: fill emptied from gelatine capsules size 00, 24 h after capsule preparation. From the text: Water activity aw is a measure of unbound free water in a system that is available to support chemical (or biological) reactions. It is defined as the vapour pressure of water divided by that of pure water at the same temperature. When a composition is in moisture equilibrium with its environment, its water activity is quantitatively equal to the relative humidity in head space of a container containing the composition, divided by 100. In particular during prolonged periods of storage, an excess of free water will migrate into the capsule shell and soften and eventually liquefy the capsule material. There are several factors that control water activity in a system. Dissolved species, e.g. salts, or sugars, interact with water through dipole-dipole, ionic, and hydrogen bonds. […] Water activity can be measured with commercially available equipment, such as the Pawkit water activity meter available from Decagon Devices, Inc. For the purposes herein, the water activity aw is suitably measured at a temperature of 25° C. […]
Twenty-four hours after the capsule preparation, the initial values of water activity and mechanical strength of the capsule shell were measured.
Capsules were stored for three months at 25° C., 60% relative humidity and 40° C., 75% relative humidity, respectively. Then, water activity and mechanical strength of the capsule shell were measured. […]

The record followed here is US20100297223A1, “PHARMACEUTICAL DOSAGE FORM COMPRISING A LIQUID OR FLOWABLE CORE COMPOSITION” (ABBOTT GMBH & CO. KG, priority 2007, published 2010).

The structures appear in SMILES notation.

In the case of `CC(CCN1CCCC1=O)N1CCCC1=O` (centres unmarked) [1,3-bis-(pyrrolidon-1-yl)-butane], the Miscibility with water result in “Miscibility with water” was “miscible with water in any ratio”. The “aw (water activity), Initial” value in series [1] was determined as 0.12.
